Source: US12611406B2, “Oxopiperazine derivatives for the treatment of cancer” (Inthera Bioscience AG, priority 2020, dated 2026)
Where two headings read alike, the source gives them in different places.

Experiments:
[1] = system: PC cells; assay: Anti-proliferative assay, five day treatment, CellTiter-Glo; format: cell-based; conditions: growth inhibition
Excerpt: The amount of cells remaining at the end of the treatment was estimated by CellTiter-Glo (Promega).
Many of the cell lines in this subset had deficiencies in the Rb1 and p53 tumor suppressor pathways.

[2] = Metabolic stability in intestinal microsomes; format: in vitro ADME; conditions: monkey compared to human
Description: In vitro testing also supports the use of mouse, Beagle dog, and cynomolgus monkey models to assay dosing and effectiveness of Compound 1. […] The metabolic profiles of hepatocytes from mouse, dog, and monkey that were cultured with Compound 1 were assessed. Similarly, the metabolic stability of Compound 1 was assayed in vitro using intestinal microsomes from mouse, rat, dog, monkey, and humans.

[3] = 28-day once weekly oral repeated-dose DRF study in cynomolgus monkeys (mesylate salt); format: in vivo; conditions: for Cmax / Tmax / half-life / AUC(0-t): cynomolgus monkey, po; for AUC(0-t): read-out: AUC0-Tlast
Description: The objective of the study was to determine the TK profile of Compound 1 following 4 weekly oral administrations to cynomolgus monkeys and to assess reversibility of any changes following a 13-day recovery period.
Male and female cynomolgus monkeys (n=1/sex/group) were orally administered Compound 1 (mesylate salt) at dose levels of 30, 45, 60, or 90 mg/kg/administration for 4 consecutive doses on study days 1, 8, 15, and 22. The vehicle was 0.5% (w/v) methyl cellulose 400 in sterile water. For TK analysis blood samples were collected from each monkey on Days 1, 8, 15 and 22 at pre-dose, 15 min, 30 min, as well as 1, 2, 4, 6, 8, 12, and 24 hours post-dose. Non-compartmental analysis of Compound 1 blood concentrations data sets was performed using the Phoenix® WinNonlin® software (version 6.4).

[4] = 5-day daily oral repeated-dose pilot study in cynomolgus monkeys (mesylate salt); format: in vivo; conditions: for Tmax: all groups
Description: The objective of the study was to determine the TK profile of Compound 1 following its daily administration through oral gavage (po) for 5 days to cynomolgus monkeys.
Naïve male and female cynomolgus monkeys (2 animals/sex/group) were orally administered Compound 1 (mesylate salt) at dose levels of 8, 12 or 16 mg/kg/day for 5 consecutive days. The vehicle was 0.5% (w/v) methyl cellulose 400 in sterile water. For TK evaluation blood samples were collected from each animal on Days 1 and 5 at pre-dose, 15 min, 30 min, as well as 1, 2, 4, 6, 8, 12, and 24 hours post-dose.

[5] = system: PR6512; assay: PR6512 mouse PDX prostate cancer model, daily oral; format: in vivo
Excerpt: FIG. 7B the efficacy of Compound 1 in the in vivo mouse PDX prostate cancer model PR6512. […] QD: once daily treatment. po: per os.
Again, an effect of the body weight was detected in all treatment groups (including the vehicle group).

[6] = system: DU-145; assay: DU-145 CDX mouse model; format: in vivo; conditions: once weekly 60 mg/kg/day as 30 mg/kg BID, 4 weeks; p <0.001
Excerpt: Values larger than 100% indicate tumor regression.

[7] = system: NCI-H69; assay: γH2A.X Western blot (DNA damage biomarker); format: cell-based; conditions: 20 or 200 nM, 24 h
Description: (§1) Cell cycle phase distribution in control (C) cells or cells treated at 20 or 200 nM Compound 1 for 24 hours (24 h) determined by fluorescence activated cell sorting (FACS) analysis, and detection of histone H2A variant H2A.X phosphorylation (γH2A.X, also referred to herein as gamma H2A.X or γH2A.X) by Western blot as DNA damage biomarker.
(§2) The observed accumulation of DNA damage upon tumor cell exposure to Compound 1, measured as an increase of the DNA damage biomarker γH2A.X (FIG. 3A), is in line with reports of p300/CBP being involved in DNA replication and DNA damage repair (DDR). […] Among these DDR proteins are ATR (ataxia telangiectasia and Rad3-related), which controls crucial cell cycle and repair checkpoints, but also nibrin (NBS1), and poly(ADP-ribose) polymerase 1 (PARP-1).
(§3) In FIG. 3A, protein amounts were normalized using total protein load with ImageLab 6.0 Software (BioRad).

[8] = system: NCI-H82; assay: γH2A.X Western blot (DNA damage biomarker); format: cell-based; conditions: 20 or 200 nM, 24 h
Description: as §1, §2, §3

[9] = system: DU-145; assay: γH2A.X Western blot (DNA damage biomarker); format: cell-based; conditions: 20 or 200 nM, 24 h
Description: as §1, §2, §3

[10] = female, blood, 45 mg/kg, F, Day 1
[11] = female, blood, 45 mg/kg, F, Day 22
[12] = female, blood, 60 mg/kg, F, Day 1
[13] = female, blood, 60 mg/kg, F, Day 22
[14] = female, blood, 90 mg/kg, F, Day 1
[15] = female, whole blood, 30 mg/kg, F, Day 1
[16] = female, whole blood, 30 mg/kg, F, Day 22
[17] = male, blood, 60 mg/kg, M, Day 1
[18] = male, blood, 60 mg/kg, M, Day 22
[19] = male, blood, 90 mg/kg, M, Day 1
[20] = male, whole blood, 30 mg/kg, M, Day 1
[21] = male, whole blood, 30 mg/kg, M, Day 22
[22] = male, whole blood, 45 mg/kg, M, Day 1
[23] = male, whole blood, 45 mg/kg, M, Day 22

**Q.** Which IC50 values [1] does the source give for `CC(C)C[C@@H]1NCCN([C@@H](CC(C)C)C(=O)N2CCC3(C[C@@H]2C)OCC(CN2CCCC2)CO3)C1=O` (stereo partly drawn) [Compound 1, (S)-3-isobutyl-1-((S)-4-methyl-1-((S)-8-methyl-3-(pyrrolidin-1-ylmethyl)-1,5-dioxa-9-azaspiro[5.5]undecan-9-yl)-1-oxopentan-2-yl)piperazin-2-one] here?
**A.** nanomolar range

**Q.** And the “stability in intestinal microsomes” value [2]?
**A.** lower stability

**Q.** What about the Cmax [3, 10] of the same molecule?
**A.** 1460 ng/mL

**Q.** What about the Tmax [3, 10] of the same molecule?
**A.** 1.5 h

**Q.** And the half-life [3, 10]?
**A.** 6.3 h

**Q.** What about the AUC(0-t) [3, 10] of the same molecule?
**A.** 4130 ng·h/mL

**Q.** And the Cmax [3, 11]?
**A.** 1650 ng/mL

**Q.** And the Tmax [3, 11]?
**A.** 1.5 h

**Q.** And the half-life [3, 11]?
**A.** 5.8 h

**Q.** What about the AUC(0-t) [3, 11] of the same molecule?
**A.** 4810 ng·h/mL

**Q.** And the Cmax [3, 12]?
**A.** 1830 ng/mL

**Q.** What about the Tmax [3, 12] of the same molecule?
**A.** 1 h

**Q.** What about the half-life [3, 12] of the same molecule?
**A.** 3.8 h

**Q.** What about the AUC(0-t) [3, 12] of the same molecule?
**A.** 7440 ng·h/mL

**Q.** And the Cmax [3, 13]?
**A.** 4480 ng/mL

**Q.** And the Tmax [3, 13]?
**A.** 2 h

**Q.** And the half-life [3, 13]?
**A.** 4.4 h

**Q.** And the AUC(0-t) [3, 13]?
**A.** 17400 ng·h/mL

**Q.** What about the Cmax [3, 14] of the same molecule?
**A.** 5030 ng/mL

**Q.** What about the Tmax [3, 14] of the same molecule?
**A.** 1.5 h

**Q.** And the half-life [3, 14]?
**A.** 4.3 h

**Q.** And the Cmax [3, 15]?
**A.** 296 ng/mL

**Q.** What about the Tmax [3, 15] of the same molecule?
**A.** 0.63 h

**Q.** And the half-life [3, 15]?
**A.** 6.4 h

**Q.** What about the AUC(0-t) [3, 15] of the same molecule?
**A.** 894 ng·h/mL

**Q.** And the Cmax [3, 16]?
**A.** 223 ng/mL

**Q.** What about the Tmax [3, 16] of the same molecule?
**A.** 1.25 h

**Q.** What about the half-life [3, 16] of the same molecule?
**A.** 5.5 h

**Q.** What about the AUC(0-t) [3, 16] of the same molecule?
**A.** 874 ng·h/mL

**Q.** What about the AUC(0-t) ([3]; female, whole blood, 90 mg/kg, F, Day 1) of the same molecule?
**A.** 18700 ng·h/mL

**Q.** And the Cmax [3, 17]?
**A.** 449 ng/mL

**Q.** And the Tmax [3, 17]?
**A.** 0.5 h

**Q.** And the half-life [3, 17]?
**A.** 7.5 h

**Q.** And the AUC(0-t) [3, 17]?
**A.** 1170 ng·h/mL

**Q.** What about the Cmax [3, 18] of the same molecule?
**A.** 2430 ng/mL

**Q.** And the Tmax [3, 18]?
**A.** 1 h

**Q.** What about the half-life [3, 18] of the same molecule?
**A.** 5.7 h

**Q.** And the AUC(0-t) [3, 18]?
**A.** 6710 ng·h/mL

**Q.** What about the Cmax [3, 19] of the same molecule?
**A.** 7300 ng/mL

**Q.** What about the Tmax [3, 19] of the same molecule?
**A.** 0.63 h

**Q.** And the half-life [3, 19]?
**A.** 4.2 h

**Q.** What about the AUC(0-t) [3, 19] of the same molecule?
**A.** 22800 ng·h/mL

**Q.** And the Cmax [3, 20]?
**A.** 229 ng/mL

**Q.** And the Tmax [3, 20]?
**A.** 0.63 h

**Q.** What about the half-life [3, 20] of the same molecule?
**A.** 4.9 h

**Q.** What about the AUC(0-t) [3, 20] of the same molecule?
**A.** 721 ng·h/mL

**Q.** And the Cmax [3, 21]?
**A.** 171 ng/mL

**Q.** And the Tmax [3, 21]?
**A.** 2 h

**Q.** What about the half-life [3, 21] of the same molecule?
**A.** 2.6 h

**Q.** And the AUC(0-t) [3, 21]?
**A.** 576 ng·h/mL

**Q.** And the Cmax [3, 22]?
**A.** 1040 ng/mL

**Q.** What about the Tmax [3, 22] of the same molecule?
**A.** 1.5 h

**Q.** And the half-life [3, 22]?
**A.** 7.6 h

**Q.** What about the AUC(0-t) [3, 22] of the same molecule?
**A.** 2950 ng·h/mL

**Q.** What about the Cmax [3, 23] of the same molecule?
**A.** 1350 ng/mL

**Q.** What about the Tmax [3, 23] of the same molecule?
**A.** 1.25 h

**Q.** And the half-life [3, 23]?
**A.** 5.2 h

**Q.** What about the AUC(0-t) [3, 23] of the same molecule?
**A.** 3910 ng·h/mL

**Q.** And the accumulation ([3]; once weekly for 4 weeks at doses up to 60 mg/kg)?
**A.** did not accumulate

**Q.** And the tolerability ([3]; single oral administration of 90 mg/kg/adm)?
**A.** side effects in one animal

**Q.** What about the tolerability ([3]; weekly oral for 4 consecutive weeks at 30, 45, and 60 mg/kg/administration) of the same molecule?
**A.** well-tolerated

**Q.** And the “Total AUC” value ([4]; 8 mg/kg/day, Day 1)?
**A.** 85 ng·h/mL

**Q.** And the “Total AUC” value ([4]; 8 mg/kg/day, Day 5)?
**A.** 175 ng·h/mL

**Q.** And the “Total AUC” value ([4]; 12 mg/kg/day, Day 1)?
**A.** 106 ng·h/mL

**Q.** What about the “Total AUC” value ([4]; 12 mg/kg/day, Day 5) of the same molecule?
**A.** 329 ng·h/mL

**Q.** And the “Total AUC” value ([4]; 16 mg/kg/day, Day 1)?
**A.** 351 ng·h/mL

**Q.** And the “Total AUC” value ([4]; 16 mg/kg/day, Day 5)?
**A.** 561 ng·h/mL

**Q.** And the Cmax ([4]; both sexes, cynomolgus monkey, serum, po, 8 mg/kg/day, Day 1, read-out: Peak serum levels (Cmax))?
**A.** 45 ng/mL

**Q.** What about the Cmax ([4]; both sexes, cynomolgus monkey, serum, po, 8 mg/kg/day, Day 5, read-out: Cmax) of the same molecule?
**A.** 64 ng/mL

**Q.** And the Cmax ([4]; both sexes, cynomolgus monkey, serum, po, 12 mg/kg/day, Day 1, read-out: Peak serum levels (Cmax))?
**A.** 42 ng/mL

**Q.** What about the Cmax ([4]; both sexes, cynomolgus monkey, serum, po, 12 mg/kg/day, Day 5, read-out: Cmax) of the same molecule?
**A.** 72 ng/mL

**Q.** What about the Cmax ([4]; both sexes, cynomolgus monkey, serum, po, 16 mg/kg/day, Day 1, read-out: Peak serum levels (Cmax)) of the same molecule?
**A.** 136 ng/mL

**Q.** And the Cmax ([4]; both sexes, cynomolgus monkey, serum, po, 16 mg/kg/day, Day 5, read-out: Cmax)?
**A.** 112 ng/mL

**Q.** And the Tmax ([4]; both sexes, cynomolgus monkey, serum, po, Day 1)?
**A.** 0.5 to 0.9 h

**Q.** What about the Tmax ([4]; both sexes, cynomolgus monkey, serum, po, Day 5) of the same molecule?
**A.** 0.5 to 1.75 h

**Q.** What about the half-life ([4]; both sexes, cynomolgus monkey, serum, po, all groups and time points, read-out: half-life (T1/2)) of the same molecule?
**A.** 5 to 7 h

**Q.** And the tolerability ([4]; oral 8, 12, and 16 mg/kg/day for 5 consecutive days, slight body weight loss, changes in hematology, urinalysis, clinical chemistry)?
**A.** tolerated

**Q.** And the tumor growth ([5]; 3 mg/kg QD)?
**A.** complete block of tumor growth

**Q.** What about the tumor growth ([5]; 1, 1.5, 2, and 3 mg/kg daily oral) of the same molecule?
**A.** dose dependent growth inhibition of tumors

**Q.** What about the PSA in blood ([5]; PR6512) of the same molecule?
**A.** effective PSA reduction

**Q.** What about the Tumor growth inhibition [6] of the same molecule?
**A.** 72 (<0.001)/**4 weeks %

**Q.** And the “DNA damage marker γH2A.X” value [7]?
**A.** accumulation of the DNA damage marker γH2A.X

**Q.** And the “DNA damage marker γH2A.X” value [8]?
**A.** accumulation of the DNA damage marker γH2A.X

**Q.** And the “DNA damage marker γH2A.X” value [9]?
**A.** accumulation of the DNA damage marker γH2A.X
